From patent publication US10577383B2, “Macrocyclic inhibitors of myeloperoxidase” (BRISTOL-MYERS SQUIBB COMPANY, priority 2016, dated 2020)

What was measured:
myeloperoxidase [1] = biological target: T1, myeloperoxidase (Homo sapiens (Human), UniProt P05164); assay: MPO Chlorination Assay (APF Assay); assay type: biochemical; conditions: MPO chlorination activity, 100 mM KPi (pH 7.4), 120 mM NaCl, ten minute preincubation; potency ranges defined in nM
Method: (§1) [formula] where A=minimal Y value (activity level of inhibited sample), B=maximal Y value (activity level of uninhibited sample), C=Log IC50, D=Hill Slope, x=concentration of inhibitor. MPO Chlorination Assay (APF Assay) MPO chlorination activity was measured in 100 mM KPi (pH 7.4) by utilizing the non-fluorescent reagent Aminophenyl fluorescein (APF, Invitrogen Cat. #A36003). APF is cleaved by (—OCl) to yield the fluorescent compound fluorescein. Reactions were carried out in 50 μL total volume by adding a 25 μL mixture of 200 pM myeloperoxidase and 120 mM NaCl to 100 nL inhibitor in 100% DMSO in a 384 well, non-binding surface clear bottom plate (Corning #3655). Enzyme, inhibitor, and chloride were preincubated for ten minutes at room temperature.
After the ten minute preincubation, 25 μL of an APF mixture containing […], 120 mM NaCl and 10 μM H2O2 was added to the plate using the internal dispensing system of a Hammatsu FDSS 6000. Kinetic determinations were carried out immediately on the FDSS 6000 (3 minute kinetic read, 1 read every second, ex: 485 nm, em: 535 nm). IC50 values for inhibitors were calculated by taking the slope of the linear portion of the kinetic measurement (20 seconds to 80-120 secs).
(§2) IC50 values were calculated by determining the slope of the linear portion of the kinetic trace (180-540 secs), and using that calculated slope to determine % inhibition occurring at each concentration of inhibitor using the following equation:
(§3) [formula] where A=minimal Y value (activity level of inhibited sample), B=maximal Y value (activity level of uninhibited sample), C=Log IC50, D=Hill Slope, x=concentration of inhibitor. EPX Bromination Assay

EPX = EPX (Homo sapiens (Human), UniProt P11678); assay: EPX Bromination Assay; assay type: biochemical; conditions: EPX bromination activity, 100 mM KPi (pH 7.4), 3-bromo tyrosine formation
Method: as §3
EPX bromination activity was measured in 100 mM KPi (pH 7.4) by monitoring the H2O2 catalyzed formation of 3-bromo tyrosine from tyrosine and potassium bromide. A 50 μl mixture of 0.6 μM EPX (Lee Biosolutions Cat. #342-60) was added to 100 nL inhibitor in 100% DMSO in a 384 well REMP plate. Enzyme and compound were preincubated for ten minutes at room temperature.
After the ten minute preincubation of enzyme and inhibitor, 25 μL of a mixture containing 400 μM tyrosine and 1200 μM potassium bromide was added to the plate containing enzyme and inhibitor, followed by the addition of 25 μl of 20 μM H2O2. The reaction was allowed to proceed for 15 minutes, at which time it was quenched with 10 μL of 20% TCA. The final concentrations of all components were 0.3 μM EPX, 100 μM tyrosine, […], 5 μM H2O2, 0.1% DMSO, 2.0% TCA.
IC50 values were determined by determining the peak areas of 3-bromo-tyrosine present at the end of the 15 minute reaction and fitting the data to:
[formula] where A=minimal Y value (activity level of inhibited sample), B=maximal Y value (activity level of uninhibited sample), C=Log IC50, D=Hill Slope, x=concentration of inhibitor.
Reversed-phase analysis was performed on a Waters Acquity Ultra Performance LC system using an Acquity UPLC BEH C18 […], 2.1×50 mm analytical column. The column was maintained at 60° C. Samples were eluted using a gradient of 0%-100% B over 2.5 minutes, followed by equilibration with 100% A for 1 minute where A consisted of 0.1% TFA and B consisted of 90% MeOH/0.1% TFA at a flow rate of 0.6 mL/min. The retention time of 3-bromo tyrosine was 1.22 min

myeloperoxidase [2] = biological target: T1, myeloperoxidase; assay: MPO Peroxidation Assay (Amplex Red Assay); assay type: biochemical; conditions: MPO peroxidation activity, 100 mM KPi (pH 7.4), ten minute preincubation; potency ranges defined in nM
Method: MPO Peroxidation Assay (Amplex Red Assay)
MPO peroxidation activity was measured in 100 mM KPi (pH 7.4) by utilizing the non-fluorescent reagent Amplex Red (Invitrogen Cat. #A12222) which can be oxidized to the highly fluorescent resorufin. Amplex Red is oxidized by the peroxidase action of MPO to resorufin. Reactions were carried out in 50 μL total volume by adding a 25 μL mixture of 200 pM myeloperoxidase and 40 nM H2O2 (Sigma #349887) to 100 nL inhibitor in 100% DMSO in a 384 well Perkin Elmer Optiplate. Enzyme and compound were preincubated for ten minutes at room temperature.
After the ten minute preincubation, 25 μL of an Amplex Red mixture containing 200 μM Amplex Red and 10 mM H2O2 was added to the plate. Kinetic determinations were carried out immediately on a Perkin Elmer Envision (15 minute kinetic read, Ex: 535 nm, Em: 590 nm).
as §2, §1

[3] = from OCc1cccc(CNCCC(c2cnn(Cc3cccc(O)c3)c2)c2cc(NC(c3ccccc3)(c3ccccc3)c3ccccc3)nc3c2nnn3C(c2ccccc2)(c2ccccc2)c2ccccc2)c1; ether bond; 17-membered ring; PPh3/DIAD; THF

Sequence of EPX (P11678 251-715): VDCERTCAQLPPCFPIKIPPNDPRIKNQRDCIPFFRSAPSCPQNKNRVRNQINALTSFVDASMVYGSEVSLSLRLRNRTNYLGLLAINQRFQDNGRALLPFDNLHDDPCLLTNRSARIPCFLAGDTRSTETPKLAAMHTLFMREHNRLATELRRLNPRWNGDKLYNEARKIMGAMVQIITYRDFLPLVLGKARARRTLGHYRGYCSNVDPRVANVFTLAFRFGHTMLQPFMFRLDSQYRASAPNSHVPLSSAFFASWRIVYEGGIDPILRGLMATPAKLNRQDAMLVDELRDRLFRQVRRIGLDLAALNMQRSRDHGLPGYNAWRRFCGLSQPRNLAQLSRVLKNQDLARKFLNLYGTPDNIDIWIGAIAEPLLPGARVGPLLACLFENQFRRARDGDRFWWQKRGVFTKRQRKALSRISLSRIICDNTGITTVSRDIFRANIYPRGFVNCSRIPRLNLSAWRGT
Sequence of EPX (P11678 140-250): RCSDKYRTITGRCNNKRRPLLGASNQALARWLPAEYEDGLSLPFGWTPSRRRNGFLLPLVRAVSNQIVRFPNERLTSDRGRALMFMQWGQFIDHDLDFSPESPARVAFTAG
T1 sequence (P05164 49-745): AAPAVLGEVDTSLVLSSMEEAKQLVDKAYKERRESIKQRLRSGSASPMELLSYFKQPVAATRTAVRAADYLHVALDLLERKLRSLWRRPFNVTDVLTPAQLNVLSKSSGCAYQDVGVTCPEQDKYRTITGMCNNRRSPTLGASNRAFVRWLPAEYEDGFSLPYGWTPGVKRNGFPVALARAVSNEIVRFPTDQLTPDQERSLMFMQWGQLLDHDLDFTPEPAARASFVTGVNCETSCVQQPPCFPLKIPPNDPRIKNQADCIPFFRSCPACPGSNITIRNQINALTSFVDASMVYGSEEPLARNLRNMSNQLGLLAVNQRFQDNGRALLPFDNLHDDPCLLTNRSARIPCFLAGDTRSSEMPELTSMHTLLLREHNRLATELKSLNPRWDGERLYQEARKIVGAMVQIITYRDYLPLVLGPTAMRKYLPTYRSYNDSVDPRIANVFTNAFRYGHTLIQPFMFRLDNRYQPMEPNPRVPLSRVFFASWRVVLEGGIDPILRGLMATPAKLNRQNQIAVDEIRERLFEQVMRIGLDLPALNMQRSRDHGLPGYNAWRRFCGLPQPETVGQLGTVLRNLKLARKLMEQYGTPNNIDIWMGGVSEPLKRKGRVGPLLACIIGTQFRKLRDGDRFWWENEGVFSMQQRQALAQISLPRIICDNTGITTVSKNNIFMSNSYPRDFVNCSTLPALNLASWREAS

## Nc1cc(C2CCNCCc3cccc(c3)Oc3cccc(c3)Cn3cc2cn3)c2nn[nH]c2n1 (single isomer, unassigned) [Example 5, 7-{18-oxa-3,4,10-triazatetracyclo[17.3.1.1^3,^6.1^13,^1^7]pentacosa-1(23),4,6(25),13,15,17(24),19,21-octaen-7-yl}-3H-[1,2,3]triazolo[4,5-b]pyridin-5-amine]
Myeloperoxidase [1]
  IC50: 1 to 100 nM
EPX
  IC50: 0.037 µM
Myeloperoxidase [2]
  IC50: 1 to 100 nM

## Nc1cc(C2CCNCC3(CC3)COc3cccc(c3)Cn3cc2cn3)c2nn[nH]c2n1 (single isomer, unassigned) [Example 20, 7-{14′-Oxa-3′,4′,10′-triazaspiro[cyclopropane-1,12′-tricyclo[13.3.1.1^3,^6]icosane]-1′(19′),4′,6′(20′),15′,17′-pentaen-7′-yl}-3H-[1,2,3]triazolo[4,5-b]pyridin-5-amine]
Myeloperoxidase [1]
  IC50: 101 to 999 nM
EPX
  IC50: 0.063 µM
Myeloperoxidase [2]
  IC50: 101 to 999 nM

## c1ccc(C(Nc2cc(C3CCNCc4cccc(c4)COc4cccc(c4)Cn4cc3cn4)c3nnn(C(c4ccccc4)(c4ccccc4)c4ccccc4)c3n2)(c2ccccc2)c2ccccc2)cc1 (stereo not shown)
[3]
  ring closure, isolated yield: 94%

## Nc1cc(C2CCNCc3cccc(c3)COc3cccc(c3)Cn3cc2cn3)c2nn[nH]c2n1 (stereo not shown) [Example 2, 7-{18-oxa-3,4,10-triazatetracyclo[17.3.1.1^3,^6.1^12,^1^6]pentacosa-1(23),4,6(25),12,14,16(24),19,21-octaen-7-yl}-3H-[1,2,3]triazolo[4,5-b]pyridin-5-amine]
Myeloperoxidase [1]
  IC50: 1 to 100 nM
EPX
  IC50: 0.19 µM
Myeloperoxidase [2]
  IC50: 101 to 999 nM

## Nc1cc(C2CCNC3CCC(CC3)COc3cccc(c3)Cn3cc2cn3)c2nn[nH]c2n1 (stereo not shown) [Example 18, 7-{3-Oxa-10,11,17-triazatetracyclo[16.2.2.1^4,^8.1^1^0,^13]tetracosa-4,6,8(24),11,13(23)-pentaen-14-yl}-3H-[1,2,3]triazolo[4,5-b]pyridin-5-amine]
Myeloperoxidase [1]
  IC50: 1 to 100 nM
EPX
  IC50: 0.22 µM
Myeloperoxidase [2]
  IC50: 101 to 999 nM
